Measurements from US20250387329A1 (priority 2022, published 2025).
Values after ≈ are worked out from the molar mass of the structure shown.

Experiments:
[1] = Formulation adjustment: solubility in selected buffers plus 0.70% NaCl, pH adjusted twice; settings: pH 7.4, aqueous buffer, thermodynamic from solid
Description: Two buffers were selected: NaH2PO4—Na2HPO4 pH 7.4 and Citrate-Na2HPO4 PH 7.4 at 50 mM, each with addition of 0.70% sodium chloride. Adding 0.70% sodium chloride provides a solution close to isotonicity.
Formulations were prepared by weighing 40 mg of Orellanine into a 5 ml vial, adding 2 ml of buffer, stirring the suspension for 1 hour, adjusting the pH to 7.4 with sodium hydroxide (0.2M), stirring the suspension at 400 rpm for 24 hours at room temperature, and adjusting the pH to 7.4 with sodium hydroxide (0.2M). Each suspension was filtered through a 0.2 μm PVDF syringe filter.

[2] = system: human renal cancer cells; settings: cells derived from a primary tumor or from metastatic tumor tissue; disclosed in WO 2010/040750; cited from earlier work
[3] = Solubility study with different buffer concentrations at pH 7.4; settings: phosphate buffer, pH 7.4, aqueous buffer, thermodynamic from solid; for solubility thermodynamic at 24 h: Concentration of Orellanine, pH adjusted to 7.4 after 3 hours, stirred 24 hours at room temperature
Description: Solubility Study with Different Buffer Concentrations at pH 7.4
The impact of buffer concentration was assessed. Three buffers were used: • Phosphate buffer pH 7.4 at 25 mM-prepared from 0.95 ml of NaH2PO4 (0.1M) and 4.05 ml of Na2HPO4 (0.1M), adjusted to 20 ml with WFI. • Phosphate buffer pH 7.4 at 50 mM-prepared from 19 ml of NaH2PO4 (0.1M) and 81 ml of Na2HPO4 (0.1M), adjusted to 200 ml with WFI. • Phosphate buffer pH 7.4 at 100 mM-prepared from 38 ml NaH2PO4 (0.1M) and 162 ml of Na2HPO4 (0.1M), adjusted to 200 ml with WFI.
(§1) The pH of each buffer was adjusted with a pH meter and sodium hydroxide or hydrochloric acid at 0.2M.
(§2) The suspension was then stirred at 400 rpm for 24 hours at room temperature. Each suspension was filtered through a 0.2 μm PVDF syringe filter.

[4] = Solubility study with different ionic strengths at pH 7.4; settings: phosphate buffer with sodium chloride, pH 7.4, aqueous buffer, thermodynamic from solid, Concentration of Orellanine, stirred 24 hours at room temperature
Description: Solubility Study with Different Ionic Strengths at pH 7.4
The ionic strength of the NaH2PO4—Na2HPO4 buffer was adjusted by adding sodium chloride. The ionic strength of the NaH2PO4—Na2HPO4 buffer at 50 mM was estimated at around 130 mM. The proportion of sodium chloride in added to the buffers was 0.41%, 0.98%, and 2.15%.
as §2

[5] = Solubility study with different buffer salts at pH 7.4; settings: for solubility thermodynamic at 24 h: pH 7.4, aqueous buffer, thermodynamic from solid
Description: Solubility Study with Different Buffer Salts at pH 7.4
Four buffers at pH 7.4 and 50 mM were assessed: • Phosphate buffer pH 7.4 at 50 mM-prepared from 19 ml of NaH2PO4 (0.1M) and 81 ml of Na2HPO4 (0.1M), adjusted to 200 ml with WFI. • Phosphate buffer pH 7.4 at 50 mM-prepared from 28.1 ml of KH2PO4 (0.2M) and 21.9 ml of NaOH (0.2M) adjusted to 200 ml with WFI. • Tris-HCl buffer pH 7.4 at 50 mM-prepared from 54.7 ml of tris(hydroxymethyl)aminomethane (0.1M) and 45.3 ml of hydrochloric acid (0.1M), adjusted to 200 ml with WFI. • Citrate phosphate buffer pH 7.4 at 50 mM-prepared from 2.4 ml of citric acid monohydrate (0.2M) and 47.6 ml of Na2HPO4 (0.2M), adjusted to 200 ml with WFI.
as §1, §2

[6] = Solubility study with buffer (pH dependent solubility testing); settings: thermodynamic from solid
Description: Solubility Study with Buffer (pH Dependent Solubility Testing)
A phase solubility study was performed for different buffers to analyse the effect of pH on the solubility of Orellanine. Four buffers were tested: • Acetate buffer pH 4.5 at 50 mM-prepared from 1.81 g sodium acetate and 14 ml of acetic acid (2N), adjusted up to 11 with water for injection (WFI). • Phosphate buffer pH 5.8 at 50 mM-prepared from 92 ml of NaH2PO4 and 8 ml of Na2HPO4, adjusted to 200 ml with WFI. • Phosphate buffer pH 6.8 at 50 mM-prepared from 51 ml of NaH2PO4 and 49 ml of Na2HPO4, adjusted to 200 ml with WFI. • Phosphate buffer pH 7.4 at 50 mM-prepared from 19 ml of NaH2PO4 and 81 ml of Na2HPO4, adjusted to 200 ml with WFI.
as §1
Each suspension was centrifuged at 5300 rpm for 15 minutes. The supernatant was filtered with a 0.45 μm nylon filter.

SMILES: [O-][n+]1ccc(O)c(O)c1-c1c(O)c(O)cc[n+]1[O-] [Orellanine]
- solubility thermodynamic at 24 h ([1]; citrate phosphate buffer with sodium chloride): 10500 µg/mL
- solubility at 24 h [1]: > 10000 µg/mL
- solubility thermodynamic at 24 h ([1]; phosphate buffer with sodium chloride): 11100 µg/mL
- Killing of human renal cancer cells [2]: killed them with great efficiency
- solubility at 24 h [3]: 3700 to 4900 µg/mL (≈ 14.7 to 19.4 mM)
- solubility thermodynamic at 24 h ([3]; NaH2PO4—Na2HPO4 pH 7.4 25 mM, final pH 7.29, 92 mOsm): 3680 µg/mL (≈ 14.6 mM)
- solubility thermodynamic at 24 h ([3]; NaH2PO4—Na2HPO4 pH 7.4 50 mM, final pH 7.33, 150 mOsm): 4880 µg/mL (≈ 19.4 mM)
- solubility thermodynamic at 24 h ([3]; NaH2PO4—Na2HPO4 pH 7.4 100 mM, final pH 7.30, 242 mOsm): 4910 µg/mL (≈ 19.5 mM)
- solubility thermodynamic at 24 h ([4]; NaH2PO4—Na2HPO4 pH 7.4 at 50 mM plus 0.41% NaCl, final pH 7.26, 205 mOsm): 5310 µg/mL
- solubility thermodynamic at 24 h ([4]; NaH2PO4—Na2HPO4 pH 7.4 at 50 mM plus 0.98% NaCl, final pH 7.19, 328 mOsm): 5900 µg/mL
- solubility thermodynamic at 24 h ([4]; NaH2PO4—Na2HPO4 pH 7.4 at 50 mM plus 2.15% NaCl, final pH 7.30, 595 mOsm): 6430 µg/mL
- Concentration of Orellanine ([5]; NaH2PO4—Na2HPO4 pH 7.4, 50 mM, stirred 24 hours at room temperature, final pH 7.33, 150 mOsm): 4880 µg/mL
- solubility thermodynamic at 24 h ([5]; Tris-HCl buffer): 4590 µg/mL
- solubility thermodynamic at 24 h ([5]; citrate phosphate buffer): 5440 µg/mL
- solubility thermodynamic at 24 h ([5]; phosphate buffer): 4560 µg/mL
- solubility thermodynamic at 24 h ([6]; acetate buffer, pH 4.5, aqueous buffer): 2.4 µg/mL (≈ 0.00952 mM)
- solubility thermodynamic at 24 h ([6]; phosphate buffer, pH 5.8, aqueous buffer): 29.9 µg/mL (≈ 0.119 mM)
- solubility thermodynamic at 24 h ([6]; phosphate buffer, pH 6.8, aqueous buffer): 622 µg/mL (≈ 2.47 mM)
- solubility thermodynamic at 24 h ([6]; phosphate buffer, pH 7.4, aqueous buffer): 1720 µg/mL (≈ 6.8 mM)
